Measured values from article PMC3155411 (2011).

Columns and labels:
[1] = target: carbonic anhydrase (Zn-CA) (Bos taurus, UniProt P00921); test: fluorescence titration; format: binding
[2] = target: T1, yeast alcohol dehydrogenase (Saccharomyces cerevisiae, UniProt P00330); test: fluorescence titration; format: binding
T1 sequence (P00330 2-348): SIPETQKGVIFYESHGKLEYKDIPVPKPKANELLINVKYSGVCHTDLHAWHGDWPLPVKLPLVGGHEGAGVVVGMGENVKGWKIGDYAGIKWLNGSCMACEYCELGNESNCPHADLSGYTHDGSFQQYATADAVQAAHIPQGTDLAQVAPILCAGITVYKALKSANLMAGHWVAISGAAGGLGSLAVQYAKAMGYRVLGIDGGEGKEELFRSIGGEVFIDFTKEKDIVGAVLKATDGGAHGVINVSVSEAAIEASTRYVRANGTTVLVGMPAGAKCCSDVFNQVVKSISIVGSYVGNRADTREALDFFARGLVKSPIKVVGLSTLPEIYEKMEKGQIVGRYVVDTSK

carbonic anhydrase (Zn-CA), sequence (P00921 2-260): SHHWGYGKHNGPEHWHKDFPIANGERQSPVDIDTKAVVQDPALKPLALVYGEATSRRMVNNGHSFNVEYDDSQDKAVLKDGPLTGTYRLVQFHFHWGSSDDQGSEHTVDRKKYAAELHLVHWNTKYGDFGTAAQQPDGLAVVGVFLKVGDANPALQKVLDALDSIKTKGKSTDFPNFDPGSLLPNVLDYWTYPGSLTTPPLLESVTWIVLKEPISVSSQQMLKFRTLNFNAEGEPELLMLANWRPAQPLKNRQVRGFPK

## COc1cc(NS(=O)(=O)c2ccc(C)cc2)c2ncccc2c1 [TSQ, 6-methoxy-8-p-toluenesulfonamido-quinoline]
[1]
  Kd: 0.155 µM
[2]
  Kd: 48.6 µM
